Data on one molecule can be found in ChEMBL document CHEMBL1150048, “Echinofuran, a New Furanosesquiterpene from the Gorgonian Echinogorgia praelonga” (J Nat Prod, 1992).

For one data set, the system named is Bacillus subtilis. In words: Antimicrobial activity against Bacillus subtilis at 100 ug/8 mm disk. The data set is classed as functional, organism-based.
In a further data set the test system is Poecilia reticulata. In words: Ichthyotoxicity against Poecilia reticulata up to 10 ppm. It is filed as organism-based. As to conditions: in vivo.
A further data set deals with Staphylococcus aureus. Briefly: Antimicrobial activity against Staphylococcus aureus at 100 ug/8 mm disk. It is filed as functional, organism-based.
For a further data set, the system named is Escherichia coli. Briefly: Antimicrobial activity against Escherichia coli at 100 ug/8 mm disk. It is filed as functional, organism-based.
A short description of data set [1]: Inhibition of cell division in sea urchin fertilized egg at 1 ug/ml. Particulars: echinoidea, fertilized sea urchin eggs.
The subject of a further data set is Aspergillus sp. Briefly: Antimicrobial activity against Aspergillus sp. at 100 ug/8 mm disk. It is filed as functional, organism-based.
In another data set the test system is Cladosporium. Briefly: Antimicrobial activity against Cladosporium at 100 ug/8 mm disk. The data set is classed as functional, organism-based.

Calls of active or inactive are those of the source. No cut-off for these calls is given here.

What is called inhibition is the drop in the measured response relative to a control, in per cent. High values mean strong suppression, low ones little suppression.

As for `C=C1CCC2=C(C)Cc3occ(C)c3C[C@@H]12` [ECHINOFURAN], the outcome with Bacillus subtilis, in the data set with Staphylococcus aureus, in the data set with Escherichia coli, with Aspergillus sp. and in the data set with Cladosporium was inactive. The Activity result in the data set with Poecilia reticulata is reported as “Non-toxic”. Also, in data set [1], the inhibition at 1 ug/ml was determined as 90%.
